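These data come from cells grown in 96-well plates and exposed to compound for 48 hours at five concentrations. The concentration for 50% growth inhibition is given as GI50. Definition used: TGI = concentration required for complete inhibition of growth.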
Assays:
Experiment in all cases: inhibition of tumour cell growth, NCI panel, 48 h
[1] = tested on: OVCAR-3 ovarian
[2] = tested on: SF-295 CNS
[3] = tested on: UACC-257 melanoma
[4] = tested on: U251 CNS
[5] = tested on: IGROV1 ovarian
[6] = tested on: HL-60(TB) leukemia
[7] = tested on: HS 578T breast
[8] = tested on: MDA-MB-231 breast
[9] = tested on: CAKI-1 renal
[10] = tested on: HCT-116 colon
[11] = tested on: NCI-H460 lung
[12] = tested on: MDA-N
[13] = tested on: EKVX NSCLC
[14] = tested on: A549 NSCLC
[15] = tested on: MOLT-4 leukemia
[16] = tested on: MALME-3M melanoma
[17] = tested on: OVCAR-4 ovarian
[18] = tested on: TK-10 renal
[19] = tested on: SNB-19 CNS
[20] = tested on: UO-31 renal
[21] = tested on: SN12C renal
[22] = tested on: SF-268 CNS
[23] = tested on: KM12 colon
[24] = tested on: UACC-62 melanoma
[25] = tested on: NCI-H522 lung
[26] = tested on: PC-3 prostate
[27] = tested on: MCF7 breast
[28] = tested on: BT-549 breast
[29] = tested on: HCT-15 colon
[30] = tested on: SK-OV-3 ovarian
[31] = tested on: MDA-MB-435
[32] = tested on: M14 melanoma
[33] = tested on: SK-MEL-2 melanoma
[34] = tested on: SW-620 colon
[35] = tested on: SR leukemia
[36] = tested on: SNB-75 CNS
[37] = tested on: HCC-2998 colon
[38] = tested on: 786-0 renal
[39] = tested on: NCI-H226 lung
[40] = tested on: NCI-H23 lung
[41] = tested on: RPMI-8226 leukemia
[42] = tested on: SK-MEL-28 melanoma
[43] = tested on: K-562 leukemia
[44] = tested on: SK-MEL-5 melanoma
[45] = tested on: CCRF-CEM leukemia
[46] = tested on: HOP-92 NSCLC
[47] = tested on: HT29 colon
[48] = tested on: COLO 205 colon
[49] = tested on: OVCAR-8 ovarian
[50] = tested on: ACHN renal
[51] = tested on: OVCAR-5 ovarian
[52] = tested on: HOP-62 NSCLC
[53] = tested on: LOX IMVI melanoma
[54] = tested on: NCI/ADR-RES ovarian
[55] = tested on: A498 renal
[56] = tested on: DU-145 prostate
[57] = tested on: T-47D breast
[58] = tested on: RXF 393 renal
[59] = tested on: SF-539 CNS

O=C(Nc1ccc(Cl)cc1)c1cc(S(=O)(=O)Nc2n[nH]c(=O)[nH]2)c(SSc2cc(Cl)c(C(=O)Nc3ccc(Cl)cc3)cc2S(=O)(=O)Nc2n[nH]c(=O)[nH]2)cc1Cl
TGI [1]: > 100 µM | TGI [2]: > 100 µM | TGI [3]: > 100 µM | TGI [4]: > 100 µM | TGI [5]: > 100 µM | TGI [6]: > 100 µM | TGI [7]: > 100 µM | TGI [8]: > 100 µM | TGI [9]: > 100 µM | TGI [10]: > 100 µM | TGI [11]: > 100 µM | TGI [12]: > 100 µM | TGI [13]: > 100 µM | TGI [14]: > 100 µM | TGI [15]: > 100 µM | TGI [16]: > 100 µM | TGI [17]: > 100 µM | TGI [18]: > 100 µM | TGI [19]: > 100 µM | TGI [20]: > 100 µM | TGI [21]: > 100 µM | TGI [22]: > 100 µM | TGI [23]: > 100 µM | TGI [24]: > 100 µM | TGI [25]: > 100 µM | TGI [26]: > 100 µM | TGI [27]: > 100 µM | TGI [28]: > 100 µM | TGI [29]: > 100 µM | TGI [30]: > 100 µM | TGI [31]: > 100 µM | TGI [32]: > 100 µM | TGI [33]: > 100 µM | TGI [34]: > 100 µM | TGI [35]: > 100 µM | TGI [36]: > 100 µM | TGI [37]: > 100 µM | TGI [38]: > 100 µM | TGI [39]: > 100 µM | TGI [40]: > 100 µM | TGI [41]: > 100 µM | TGI [42]: > 100 µM | TGI [43]: > 100 µM | TGI [44]: > 100 µM | TGI [45]: > 100 µM | TGI [46]: > 100 µM | TGI [47]: > 100 µM | TGI [48]: > 100 µM | TGI [49]: > 100 µM | TGI [50]: > 100 µM | TGI [51]: > 100 µM | TGI [52]: > 100 µM | TGI [53]: > 100 µM | TGI [54]: > 100 µM | TGI [55]: > 100 µM

CC(C)=CC/C=C(/C)[C@H]1CC[C@]2(C)[C@@H]1CC[C@@H]1[C@@]3(C)CCC(=O)NC(C)(C)[C@@H]3CC[C@]12C
GI50 [1]: 18.3 µM | TGI [1]: 34.1 µM | GI50 [2]: 18.7 µM | TGI [2]: 36.6 µM | GI50 [3]: 31.7 µM | TGI [3]: > 100 µM | GI50 [4]: 17.2 µM | TGI [4]: 36.5 µM | GI50 [5]: 10.6 µM | TGI [5]: 26.5 µM | GI50 [6]: 18.2 µM | TGI [6]: 49.3 µM | GI50 [7]: 26.3 µM | TGI [7]: 94.3 µM | GI50 [8]: 20.5 µM | TGI [8]: 44.3 µM | GI50 [9]: 19.6 µM | TGI [9]: 40.3 µM | GI50 [10]: 15 µM | TGI [10]: 34.5 µM | GI50 [11]: 33.9 µM | TGI [11]: > 100 µM | GI50 [56]: 16.9 µM | TGI [56]: 31.7 µM | GI50 [13]: 27.7 µM | TGI [13]: 84 µM | GI50 [14]: 30.2 µM | TGI [14]: > 100 µM | GI50 [15]: 15.4 µM | TGI [15]: 49.6 µM | GI50 [16]: 16 µM | TGI [16]: 30.8 µM | GI50 [17]: 21.9 µM | TGI [17]: 75 µM | GI50 [18]: 47.5 µM | TGI [18]: > 100 µM | GI50 [19]: 25 µM | TGI [19]: 72.4 µM | GI50 [20]: 15.6 µM | TGI [20]: 29.2 µM | GI50 [21]: 16.1 µM | TGI [21]: 33.8 µM | GI50 [22]: 17.2 µM | TGI [22]: 34.6 µM | GI50 [23]: 18.7 µM | TGI [23]: 37.5 µM | GI50 [57]: 19.8 µM | TGI [57]: 91 µM | GI50 [24]: 16.9 µM | TGI [24]: 43.5 µM | GI50 [25]: 18.4 µM | TGI [25]: 40.2 µM | GI50 [58]: 16.8 µM | TGI [58]: 32.4 µM | GI50 [26]: 7.49 µM | TGI [26]: 23.9 µM | GI50 [27]: 18.8 µM | TGI [27]: 62.8 µM | GI50 [28]: 18.7 µM | TGI [28]: 43.5 µM | GI50 [29]: 15.4 µM | TGI [29]: 32.1 µM | GI50 [30]: 47.7 µM | TGI [30]: > 100 µM | GI50 [31]: 20.7 µM | TGI [31]: 48.9 µM | GI50 [32]: 17.8 µM | TGI [32]: 39.3 µM | GI50 [33]: 27.6 µM | TGI [33]: 82.8 µM | GI50 [34]: 20.2 µM | TGI [34]: 43.9 µM | GI50 [35]: 17.4 µM | TGI [35]: 51.8 µM | GI50 [36]: 20.9 µM | TGI [36]: 55.1 µM | GI50 [37]: 20.2 µM | TGI [37]: 35.8 µM | GI50 [38]: 19.8 µM | TGI [38]: 37.5 µM | GI50 [39]: 19.1 µM | TGI [39]: 43.1 µM | GI50 [40]: 18.3 µM | TGI [40]: 45.7 µM | GI50 [41]: 11.8 µM | TGI [41]: 34.6 µM | GI50 [42]: 16.7 µM | TGI [42]: 31.6 µM | GI50 [43]: 17.3 µM | TGI [43]: 88.2 µM | GI50 [44]: 13.3 µM | TGI [44]: 26.4 µM | GI50 [45]: 12.4 µM | TGI [45]: 47.9 µM | GI50 [46]: 13.8 µM | TGI [46]: 28.2 µM | GI50 [47]: 20.4 µM | TGI [47]: 72.3 µM | GI50 [48]: 25.3 µM | TGI [48]: 64.7 µM | GI50 [49]: 26 µM | TGI [49]: 76.7 µM | GI50 [50]: 20 µM | TGI [50]: 43 µM | GI50 [51]: 19.3 µM | TGI [51]: 39.5 µM | GI50 [52]: 20.8 µM | TGI [52]: 44.7 µM | GI50 [53]: 17.9 µM | TGI [53]: 32.4 µM | GI50 [54]: 22.2 µM | TGI [54]: 55.6 µM | GI50 [59]: 16.5 µM | TGI [59]: 30.5 µM | GI50 [55]: 23.6 µM | TGI [55]: 67.5 µM

Reference: PubChem BioAssay (NCI)
